Reference: patent US10206909B2, “3-(1H-pyrrolo[2,3-B]pyridin-2-yl)-1H-pyrazolo[4,3-B]pyridines and therapeutic uses thereof” (Samumed, LLC, priority 2015, dated 2019)

How the values were obtained:
[1] = system: SW480 colon cancer cells; assay: Cell viability assay (CellTiter-Blue); type: cell-based; conditions: Homo sapiens; for EC50: 96 h, SW480 cell viability, four days, CellTiter-Blue; for inhibition at 10 µM: given where EC50 >10 μM, SW480 viability, read-out: percent inhibition at 10 μM
Method: Representative compounds were screened using the following assay procedure to assess the effect on cell viability as described below.
Each compound was dissolved in DMSO as a 10 mM stock and used to prepare compound source plates. Serial dilution (1:3, 8-point dose-response curves from 10 μM to 0.0045 μM) and compound transfer was performed using the ECHO 550 (Labcyte, Sunnyvale, Calif.) into 96-well clear bottom, black-walled plates (Corning-Costar).
Approximately 2×10^3 SW480 colon cancer cells were seeded into each well and allowed to incubate in the presence or absence of compound for four days at 37° C./5% CO2. Eight replicates of DMSO-treated cells served as controls and cells treated with compound were performed in duplicate.
After incubation, 20 μL of CellTiter-Blue (Promega) was added to each well allowed to incubate for approximately 3 hours. This reagent was a buffered solution which contains resazurin, metabolically active cells were able to reduce rezarurin (blue) into resorufin (pink) which was highly fluorescent. This measured fluorescence was used as a readout for cell viability.
After incubation, the plates were read at Ex 560 nm Em 590 nm (Cytation 3, BioTek). Dose-response curves were generated and EC50 concentration values were calculated using non-linear regression curve fit in the GraphPad Prism (San Diego, Calif.) or Dotmatics' Studies Software (Bishops Stortford, UK). For EC50 of >10 μM, the percent inhibition at 10 μM is provided.

[2] = system: Wnt activity (Sp5-Luc reporter, SW480 colon carcinoma cells); assay: Wnt activity screening assay: Sp5-Luc reporter gene assay in SW480 cells; type: cell-based; conditions: Homo sapiens; for EC50: SW480 cells, overnight incubation; for inhibition at 10 µM: given where EC50 >10 μM, SW480, read-out: percent inhibition at 10 μM
Text: The screening assay for Wnt activity is described as follows. Reporter cell lines can be generated by stably transducing cancer cell lines (e.g., colon cancer) or primary cells (e.g., IEC-6 intestinal cells) with a lentiviral construct that includes a Wnt-responsive promoter driving expression of the firefly luciferase gene.
SW480 colon carcinoma cells were transduced with a lentiviral vector expressing luciferase with a human Sp5 promoter consisting of a sequence of eight TCF/LEF binding sites. SW480 cells stably expressing the Sp5-Luc reporter gene and a hygromycin resistance gene were selected by treatment with 150 μg/mL of hygromycin for 7 days. These stably transduced SW480 cells were expanded in cell culture and used for all further screening activities. Each compound was dissolved in DMSO as a 10 mM stock and used to prepare compound source plates. Serial dilution (1:3, 10-point dose-response curves starting from 10 μM) and compound transfer was performed using the ECHO 550 (Labcyte, Sunnyvale, Calif.) into 384-well white solid bottom assay plates (Greiner Bio-One) with appropriate DMSO backfill for a final DMSO concentration of 0.1%. For Sp5-Luc reporter gene assays, the cells were plated at 4,000 cells/well in 384-well plates with medium containing 1% fetal bovine serum and incubated overnight at 37° C. and 5% CO2. Following incubation, 20 μl of BrightGlo luminescence reagent (Promega) was added to each well of the 384-well assay plates. The plates were placed on an orbital shaker for 2 min and then luminescence was quantified using the Envision (Perkin Elmer) plate reader. Readings were normalized to DMSO only treated cells, and normalized activities were utilized for EC50 calculations using the dose-response log (inhibitor) vs. response -variable slope (four parameters) nonlinear regression feature available in GraphPad Prism 5.0 (or Dotmatics). For EC50 of >10 μM, the percent inhibition at 10 μM is provided.

Row | Structure (SMILES) | EC50 [1] [µM] | inhibition at 10 µM [1] [%] | EC50 [2] [µM] | inhibition at 10 µM [2] [%]
1 | Fc1cccc(-c2ccnc3[nH]c(-c4n[nH]c5ccc(-c6cccnc6)nc45)cc23)c1 [Compound 4, 3-(4-(3-Fluorophenyl)-1H-pyrrolo[2,3-b]pyridin-2-yl)-5-(pyridin-3-yl)-1H-pyrazolo[4,3-b]pyridine] | > 10 | 6.4 | > 10 | 47.3
2 | CC(C)(C)C(=O)Nc1cncc(-c2ccc3[nH]nc(-c4cc5c(-c6cccc(F)c6)ccnc5[nH]4)c3n2)c1 [Compound 8, N-(5-(3-(4-(3-Fluorophenyl)-1H-pyrrolo[2,3-b]pyridin-2-yl)-1H-pyrazolo [4,3-b]pyridin-5-yl)pyridin-3-yl)pivalamide] | > 10 | 18.4 | > 10 | 14.3
3 | Cc1ccncc1-c1ccc2[nH]nc(-c3cc4c(-c5ccc(F)cc5)ccnc4[nH]3)c2n1 [Compound 33, 3-(4-(4-Fluorophenyl)-1H-pyrrolo[2,3-b]pyridin-2-yl)-5-(4-methylpyridin-3-yl)-1H-pyrazolo[4,3-b]pyridine] | > 10 | 15.9 | > 10 | 16.2
4 | O=C(Nc1cncc(-c2ccc3[nH]nc(-c4cc5c(-c6ccc(F)cc6)ccnc5[nH]4)c3n2)c1)c1ccccc1 [Compound 39, N-(5-(3-(4-(4-Fluorophenyl)-1H-pyrrolo[2,3-b]pyridin-2-yl)-1H-pyrazolo [4,3-b]pyridin-5-yl)pyridin-3-yl)benzamide] | > 10 | 11.1 | > 10 | 0
5 | Fc1ccc(-c2ccnc3[nH]c(-c4n[nH]c5ccc(-c6cncc(CN7CCC(F)(F)C7)c6)nc45)cc23)cc1 [Compound 54, 5-(5-((3,3-Difluoropyrrolidin-1-yl)methyl)pyridin-3-yl)-3-(4-(4-fluorophenyl)-1H-pyrrolo[2,3-b]pyridin-2-yl)-1H-pyrazolo[4,3-b]pyridine] | > 10 | 27.8 | > 10 | 10.2
6 | Fc1ccc(-c2ccnc3[nH]c(-c4n[nH]c5ccc(-c6cncnc6)nc45)cc23)cc1 [Compound 55, 3-(4-(4-Fluorophenyl)-1H-pyrrolo[2,3-b]pyridin-2-yl)-5-(pyrimidin-5-yl)-1H-pyrazolo[4,3-b]pyridine] | > 10 | 20.5 | > 10 | 32
7 | CC(C)CC(=O)Nc1cncc(-c2ccc3[nH]nc(-c4cc5c(-c6ccccc6F)ccnc5[nH]4)c3n2)c1 [Compound 58, N-(5-(3-(4-(2-Fluorophenyl)-1H-pyrrolo[2,3-b]pyridin-2-yl)-1H-pyrazolo [4,3-b]pyridin-5-yl)pyridin-3-yl)-3-methylbutanamide] | > 10 | 11.5 | 0.517 | 
8 | O=C(Nc1cncc(-c2ccc3[nH]nc(-c4cc5c(-c6ccccc6F)ccnc5[nH]4)c3n2)c1)C1CC1 [Compound 76, N-(5-(3-(4-(2-Fluorophenyl)-1H-pyrrolo[2,3-b]pyridin-2-yl)-1H-pyrazolo [4,3-b]pyridin-5-yl)pyridin-3-yl)cyclopropanecarboxamide] | 4.7 |  | > 10 | 37.3
9 | Fc1ccccc1-c1ccnc2[nH]c(-c3n[nH]c4ccc(-c5cncc(CNCc6ccccc6)c5)nc34)cc12 [Compound 80, N-Benzyl-1-(5-(3-(4-(2-fluorophenyl)-1H-pyrrolo[2,3-b]pyridin-2-yl)-1H-pyrazolo[4,3-b]pyridin-5-yl)pyridin-3-yl)methanamine] | 2.06 |  | > 10 | 29
10 | Fc1ccccc1-c1ccnc2[nH]c(-c3n[nH]c4ccc(-c5ccccn5)nc34)cc12 [Compound 84, 3-(4-(2-Fluorophenyl)-1H-pyrrolo[2,3-b]pyridin-2-yl)-5-(pyridin-2-yl)-1H-pyrazolo[4,3-b]pyridine] | > 10 | 16.5 | > 10 | 3
11 | c1cncc(-c2ccnc3[nH]c(-c4n[nH]c5ccc(-c6ccncc6)nc45)cc23)c1 [Compound 102, 3-(4-(Pyridin-3-yl)-1H-pyrrolo[2,3-b]pyridin-2-yl)-5-(pyridin-4-yl)-1H-pyrazolo[4,3-b]pyridine] | > 10 | 10 | > 10 | 9.5
12 | c1cc(N2CCCCC2)c2cc(-c3n[nH]c4ccc(-c5cncc(CN6CCCCC6)c5)nc34)[nH]c2n1 [Compound 183, 3-(4-(Piperidin-1-yl)-1H-pyrrolo[2,3-b]pyridin-2-yl)-5-(5-(piperidin-1-ylmethyl)pyridin-3-yl)-1H-pyrazolo[4,3-b]pyridine] | > 10 | 45.5 | > 10 | 6.5
13 | c1ccc(-c2ccc3[nH]nc(-c4cc5c(N6CCCCC6)ccnc5[nH]4)c3n2)nc1 [Compound 196, 3-(4-(Piperidin-1-yl)-1H-pyrrolo[2,3-b]pyridin-2-yl)-5-(pyridin-2-yl)-1H-pyrazolo[4,3-b]pyridine] | > 10 | 2.4 | > 10 | 9.8
14 | O=C(Nc1cncc(-c2ccc3[nH]nc(-c4cc5cccnc5[nH]4)c3n2)c1)C1CCCCC1 [Compound 275, N-(5-(3-(1H-Pyrrolo[2,3-b]pyridin-2-yl)-1H-pyrazolo[4,3-b]pyridin-5-yl)pyridin-3-yl)cyclohexanecarboxamide] | > 10 | 10.5 | > 10 | 14.9
15 | CN(C)c1cncc(-c2ccc3[nH]nc(-c4cc5c(-c6ccoc6)ccnc5[nH]4)c3n2)c1 [Compound 315, 5-(3-(4-(Furan-3-yl)-1H-pyrrolo[2,3-b]pyridin-2-yl)-1H-pyrazolo[4,3-b]pyridin-5-yl)-N,N-dimethylpyridin-3-amine] | > 10 | 6.1 | > 10 | 6.6
16 | O=C(Cc1ccccc1)Nc1cncc(-c2ccc3[nH]nc(-c4cc5c(-c6ccoc6)ccnc5[nH]4)c3n2)c1 [Compound 318, N-(5-(3-(4-(Furan-3-yl)-1H-pyrrolo[2,3-b]pyridin-2-yl)-1H-pyrazolo[4,3-b]pyridin-5-yl)pyridin-3-yl)-2-phenylacetamide] | > 10 | 3 | > 10 | 3.4
17 | c1csc(-c2ccnc3[nH]c(-c4n[nH]c5ccc(-c6ccncc6)nc45)cc23)c1 [Compound 354, 5-(Pyridin-4-yl)-3-(4-(thiophen-2-yl)-1H-pyrrolo[2,3-b]pyridin-2-yl)-1H-pyrazolo[4,3-b]pyridine] | > 10 | 39.8 | > 10 | 14.6
18 | c1csc(-c2ccnc3[nH]c(-c4n[nH]c5ccc(-c6cncnc6)nc45)cc23)c1 [Compound 363, 5-(Pyrimidin-5-yl)-3-(4-(thiophen-2-yl)-1H-pyrrolo[2,3-b]pyridin-2-yl)-1H-pyrazolo[4,3-b]pyridine] | > 10 | 29.3 | > 10 | 29.8
19 | Fc1cccc(-c2ccnc3[nH]c(-c4n[nH]c5ccc(-c6cncc(OCc7ccccc7)c6)nc45)cc23)c1 [Compound 518, 5-(5-(Benzyloxy)pyridin-3-yl)-3-(4-(3-fluorophenyl)-1H-pyrrolo[2,3-b]pyridin-2-yl)-1H-pyrazolo[4,3-b]pyridine] | > 10 | 17.3 | > 10 | 16.7
20 | Oc1cncc(-c2ccc3[nH]nc(-c4cc5c(-c6ccc(F)cc6)ccnc5[nH]4)c3n2)c1 [Compound 533, 5-(3-(4-(4-Fluorophenyl)-1H-pyrrolo[2,3-b]pyridin-2-yl)-1H-pyrazolo[4,3-b]pyridin-5-yl)pyridin-3-ol] | > 10 | 15.4 | 0.31 | 
